{
  "source": "PubChem BioAssay AID248",
  "about": "(DTP/NCI, 2004)",
  "test_system": "L1210 leukemia ip in BDF1 mice, survival T/C",
  "experiment": "NCI In Vivo Anticancer Drug Screen. Data for tumor model L1210 Leukemia (intraperitoneal) in B6D2F1 (BDF1) mice",
  "conditions": "endpoint: mean survival time, higher = longer survival",
  "in_short": "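Ratio derived from survival: compound-dosed mice over vehicle-dosed mice, all bearing a transplantable tumor.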",
  "note": "Values joined by “and” are separate entries in the source; they are usually repeats but may differ in a detail not shown here. Equal values may be shown once. Toxic doses and inconclusive results are not listed.",
  "data": [
    {"molecule": "Cc1cc(C)c(C(=O)CC(=O)c2cccnc2)c(C)c1", "values": [
      {"measurement": "T/C", "setting": "dose: 25.0 mg/kg/injection, schedule: Q01DX001 (ip), vehicle: saline", "result": "102 % of control"},
      {"measurement": "T/C", "setting": "dose: 50.0 mg/kg/injection, schedule: Q01DX001 (ip), vehicle: saline", "result": "101 % of control and 104 % of control"},
      {"measurement": "T/C", "setting": "dose: 50.0 mg/kg/injection, schedule: Q04DX003 (ip), vehicle: saline", "result": "97 % of control"},
      {"measurement": "T/C", "setting": "dose: 100.0 mg/kg/injection, schedule: Q01DX001 (ip), vehicle: saline", "result": "102 % of control and 103 % of control"},
      {"measurement": "T/C", "setting": "dose: 100.0 mg/kg/injection, schedule: Q04DX003 (ip), vehicle: saline", "result": "97 % of control"},
      {"measurement": "T/C", "setting": "dose: 200.0 mg/kg/injection, schedule: Q01DX001 (ip), vehicle: saline", "result": "97 % of control and 98 % of control"},
      {"measurement": "T/C", "setting": "dose: 200.0 mg/kg/injection, schedule: Q04DX003 (ip), vehicle: saline", "result": "98 % of control"},
      {"measurement": "T/C", "setting": "dose: 400.0 mg/kg/injection, schedule: Q01DX001 (ip), vehicle: saline", "result": "103 % of control"}
    ]},
    {"molecule": "CCCCCCCCCCCC(=O)N/N=C/c1ccccc1OC", "values": [
      {"measurement": "T/C", "setting": "dose: 25.0 mg/kg/injection, schedule: Q01DX009 (ip), vehicle: Klucel (hydroxypropylcellulose) (HPC)", "result": "90 % of control"},
      {"measurement": "T/C", "setting": "dose: 50.0 mg/kg/injection, schedule: Q01DX009 (ip), vehicle: Klucel (hydroxypropylcellulose) (HPC)", "result": "94 % of control"},
      {"measurement": "T/C", "setting": "dose: 100.0 mg/kg/injection, schedule: Q01DX009 (ip), vehicle: Klucel (hydroxypropylcellulose) (HPC)", "result": "87 % of control and 90 % of control"}
    ]},
    {"molecule": "CCOC(=N)c1cn(C2OC(CO)C(O)C2O)c2ncnc(N)c12", "note": "(stereo not given)", "values": [
      {"measurement": "T/C", "setting": "dose: 0.12 mg/kg/injection, schedule: Q01DX009 (ip), vehicle: saline with Tween-80", "result": "120 % of control"},
      {"measurement": "T/C", "setting": "dose: 0.12 mg/kg/injection, schedule: Q01DX009 (ip), vehicle: saline", "result": "109 % of control"},
      {"measurement": "T/C", "setting": "dose: 0.18 mg/kg/injection, schedule: Q01DX009 (ip), vehicle: saline with Tween-80", "result": "120 % of control"},
      {"measurement": "T/C", "setting": "dose: 0.18 mg/kg/injection, schedule: Q01DX009 (ip), vehicle: saline", "result": "123 % of control"},
      {"measurement": "T/C", "setting": "dose: 0.27 mg/kg/injection, schedule: Q01DX009 (ip), vehicle: saline with Tween-80", "result": "117 % of control"},
      {"measurement": "T/C", "setting": "dose: 0.27 mg/kg/injection, schedule: Q01DX009 (ip), vehicle: saline", "result": "121 % of control"},
      {"measurement": "T/C", "setting": "dose: 0.6 mg/kg/injection, schedule: Q01DX009 (ip), vehicle: saline", "result": "118 % of control"},
      {"measurement": "T/C", "setting": "dose: 0.9 mg/kg/injection, schedule: Q01DX009 (ip), vehicle: saline", "result": "112 % of control"},
      {"measurement": "T/C", "setting": "dose: 1.3 mg/kg/injection, schedule: Q01DX009 (ip), vehicle: saline", "result": "96 % of control"}
    ]},
    {"molecule": "CC(=O)NC(N)=NCCCC(N)C(=O)O", "note": "(stereo not given)", "values": [
      {"measurement": "T/C", "setting": "dose: 75.0 mg/kg/injection, schedule: Q04DX003 (ip), vehicle: Klucel (hydroxypropylcellulose) (HPC)", "result": "91 % of control"},
      {"measurement": "T/C", "setting": "dose: 150.0 mg/kg/injection, schedule: Q04DX003 (ip), vehicle: Klucel (hydroxypropylcellulose) (HPC)", "result": "94 % of control"},
      {"measurement": "T/C", "setting": "dose: 300.0 mg/kg/injection, schedule: Q04DX003 (ip), vehicle: Klucel (hydroxypropylcellulose) (HPC)", "result": "94 % of control"}
    ]},
    {"molecule": "O=C(CCCC(=O)N/N=C/C1CC=CCC1)N/N=C\\C1CC=CCC1", "note": "(stereo not given)", "values": [
      {"measurement": "T/C", "setting": "dose: 50.0 mg/kg/injection, schedule: Q01DX001 (ip), vehicle: other", "result": "90 % of control"},
      {"measurement": "T/C", "setting": "dose: 100.0 mg/kg/injection, schedule: Q01DX001 (ip), vehicle: other", "result": "90 % of control"},
      {"measurement": "T/C", "setting": "dose: 400.0 mg/kg/injection, schedule: Q01DX001 (ip), vehicle: other", "result": "98 % of control"}
    ]},
    {"molecule": "COc1ccc(CN2CCCN(Cc3ccc(OC)cc3OC)C2c2ccc(N(CCCl)CCCl)cc2F)c(OC)c1", "values": [
      {"measurement": "T/C", "setting": "dose: 50.0 mg/kg/injection, schedule: Q01DX001 (ip), vehicle: carboxymethylcellulose (CMC)", "result": "104 % of control"},
      {"measurement": "T/C", "setting": "dose: 100.0 mg/kg/injection, schedule: Q01DX001 (ip), vehicle: carboxymethylcellulose (CMC)", "result": "98 % of control"},
      {"measurement": "T/C", "setting": "dose: 200.0 mg/kg/injection, schedule: Q01DX001 (ip), vehicle: carboxymethylcellulose (CMC)", "result": "104 % of control"},
      {"measurement": "T/C", "setting": "dose: 400.0 mg/kg/injection, schedule: Q01DX001 (ip), vehicle: carboxymethylcellulose (CMC)", "result": "106 % of control"}
    ]},
    {"molecule": "O=C1NC(c2cccs2)(c2cccs2)C(=O)N1Cl", "values": [
      {"measurement": "T/C", "setting": "dose: 6.25 mg/kg/injection, schedule: Q01DX009 (ip), vehicle: water", "result": "100 % of control"},
      {"measurement": "T/C", "setting": "dose: 12.5 mg/kg/injection, schedule: Q01DX009 (ip), vehicle: water", "result": "97 % of control and 116 % of control"},
      {"measurement": "T/C", "setting": "dose: 25.0 mg/kg/injection, schedule: Q01DX009 (ip), vehicle: water", "result": "98 % of control and 113 % of control"},
      {"measurement": "T/C", "setting": "dose: 25.0 mg/kg/injection, schedule: Q04DX003 (ip), vehicle: water", "result": "92 % of control"},
      {"measurement": "T/C", "setting": "dose: 50.0 mg/kg/injection, schedule: Q01DX009 (ip), vehicle: water", "result": "104 % of control and 87 % of control"},
      {"measurement": "T/C", "setting": "dose: 50.0 mg/kg/injection, schedule: Q04DX003 (ip), vehicle: water", "result": "100 % of control"},
      {"measurement": "T/C", "setting": "dose: 100.0 mg/kg/injection, schedule: Q01DX009 (ip), vehicle: water", "result": "87 % of control"},
      {"measurement": "T/C", "setting": "dose: 100.0 mg/kg/injection, schedule: Q04DX003 (ip), vehicle: water", "result": "97 % of control and 112 % of control"},
      {"measurement": "T/C", "setting": "dose: 150.0 mg/kg/injection, schedule: Q01DX009 (ip), vehicle: water", "result": "116 % of control"},
      {"measurement": "T/C", "setting": "dose: 200.0 mg/kg/injection, schedule: Q01DX009 (ip), vehicle: water", "result": "93 % of control"}
    ]},
    {"molecule": "CS(=O)(=O)OCCN(CCOS(C)(=O)=O)c1ccc(C=Nc2ccc3ccccc3c2)cc1", "values": [
      {"measurement": "T/C", "setting": "dose: 20.0 mg/kg/injection, schedule: Q04DX003 (ip), vehicle: Klucel (hydroxypropylcellulose) (HPC)", "result": "110 % of control"},
      {"measurement": "T/C", "setting": "dose: 40.0 mg/kg/injection, schedule: Q04DX003 (ip), vehicle: Klucel (hydroxypropylcellulose) (HPC)", "result": "117 % of control"},
      {"measurement": "T/C", "setting": "dose: 53.3 mg/kg/injection, schedule: Q04DX003 (ip), vehicle: Klucel (hydroxypropylcellulose) (HPC)", "result": "152 % of control"},
      {"measurement": "T/C", "setting": "dose: 100.0 mg/kg/injection, schedule: Q04DX003 (ip), vehicle: Klucel (hydroxypropylcellulose) (HPC)", "result": "120 % of control"},
      {"measurement": "T/C", "setting": "dose: 120.0 mg/kg/injection, schedule: Q04DX003 (ip), vehicle: Klucel (hydroxypropylcellulose) (HPC)", "result": "95 % of control and 100 % of control"}
    ]}
  ]
}
